Values of other authors, collected in patent publication US20160113981A1, “TOPICAL COMPOSITION” (priority 2014, published 2016).

What was measured:
[1] = equimolar dose of indomethacin
[2] = after topical application of lavender oil

## CC1=CC[C@@]2(C)[C@H]([C@@H]1C)[C@H]1CC[C@@H]3[C@@]4(C)CC[C@H](O)C(C)(C)[C@@H]4CC[C@@]3(C)[C@]1(C)C[C@@H]2O [faradiol]
[1]
  anti-inflammatory effect compared with indomethacin: same effects as an equimolar dose of indomethacin

## C=CC(C)(O)CCC=C(C)C (stereo not drawn) [linalool]
[2]
  time of peak in the blood: 19 min

## C=CC(C)(CCC=C(C)C)OC(C)=O (stereo not drawn) [linalyl acetate]
[2]
  time of peak in the blood: 19 min
